{"source": "paper PMC4801481", "about": "(Biochemistry, 2015)", "key": {"[1]": {"assay": "Solubility of Rev protein", "type": "physicochemical", "settings": "in the absence of RNA"}, "[2]": {"settings": "in the absence of high salt; cited from earlier work"}, "[3]": {"test_system": "stem IIB (HIV-1 RRE RNA hairpin)", "assay": "NMR of Rev complexes with stem IIB", "type": "binding", "settings": "288 K"}, "[4]": {"test_system": "stem IA (HIV-1 RRE RNA hairpin)", "assay": "NMR of Rev complexes with stem IA", "type": "binding", "settings": "288 K"}}, "note": "Read-outs that look alike come from different tables or passages of the source."}
{"substance": "Rev protein: viral regulatory protein Rev of HIV-1", "values": [{"measurement": "solubility", "setting": "[1]", "value": "poor solubility of Rev in the absence of RNA"}, {"measurement": "solubility", "setting": "[2]", "value": "poorly soluble in the absence of high salt"}]}
{"substance": "RevDO: Truncated HIV-1 Rev (residues 9–64) with mutated dimerization (L12 → S, L60 → R) and higher-order oligomerization (L18 → Q, I55 → N) surfaces", "values": [{"measurement": "RNA imino resonances on RevDO binding", "setting": "[3]; 1D 1H NMR, pH 6.5, 0.1 M KCl", "value": "almost identical to those obtained with the Rev–ARM peptide"}, {"measurement": "number of backbone amide resonances", "setting": "[3]; 1H–15N HSQC, 15N-RevDO bound to IIB, 0.4 mM, pH 6.5", "value": "~50", "unit": "backbone amide resonances"}, {"measurement": "arginine Hε protons", "setting": "[3]; 1H–15N HSQC, RevDO bound to IIB", "value": "well resolved with IIB"}, {"measurement": "imino proton of Trp45", "setting": "[3]; 1H–15N HSQC, RevDO complexes, IIB versus IA", "value": "observed only with IIB"}, {"measurement": "1H–15N HSQC peak appearance", "setting": "[3]; 15N-RevDO bound to IIB, 0.4 mM, pH 6.5", "value": "reasonably well-resolved peaks"}, {"measurement": "RNA imino resonances on RevDO binding", "setting": "[4]; 1D 1H NMR, pH 6.5, 0.1 M KCl", "value": "almost identical to those obtained with the Rev–ARM peptide"}, {"measurement": "number of backbone amide resonances", "setting": "[4]; 1H–15N HSQC, 15N-RevDO bound to IA, 0.4 mM, pH 6.5", "value": "~40", "unit": "backbone amide resonances"}, {"measurement": "arginine Hε protons", "setting": "[4]; 1H–15N HSQC, RevDO bound to IA", "value": "mostly absent with IA"}, {"measurement": "1H–15N HSQC peak appearance", "setting": "[4]; 15N-RevDO bound to IA, 0.4 mM, pH 6.5", "value": "fewer, broader peaks"}]}
